Source: ChEMBL document CHEMBL1201862, “PubChem BioAssay data set” (2004)
Where “and” joins values, the source holds several entries; their conditions need not be identical. Equal entries are not always repeated.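 Cells were grown in 96-well plates and exposed to each compound for 48 hours at five concentrations; endpoints were interpolated linearly between bracketing concentrations, or set to the highest concentration if not reached. Here, GI50 denotes the concentration required for 50% inhibition of growth.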 Calls of active or inactive are those of the source. Rule as the data show it: active = GI50 up to about 1.1 µM and inactive = higher.

What was measured:
Experiment in all cases: NCI tumour cell line growth inhibition, 48 h
SK-MEL-28 = tested on: SK-MEL-28
DU-145 = tested on: DU-145
HOP-92 = tested on: HOP-92
UACC-62 = tested on: UACC-62
EKVX = tested on: EKVX
BT-549 = tested on: BT-549
A549 = tested on: A549
SNB-19 = tested on: SNB-19
MCF7 = tested on: MCF7
OVCAR-4 = tested on: OVCAR-4
SK-OV-3 = tested on: SK-OV-3
CAKI-1 = tested on: CAKI-1
IGROV-1 = tested on: IGROV-1
SW-620 = tested on: SW-620
RXF 393 = tested on: RXF 393
T47D = tested on: T47D
Hs-578T = tested on: Hs-578T
NCI-H460 = tested on: NCI-H460

| Compound | GI50 (SK-MEL-28) | GI50 (DU-145) | GI50 (HOP-92) | GI50 (UACC-62) | GI50 (EKVX) | GI50 (BT-549) | GI50 (A549) | GI50 (SNB-19) | GI50 (MCF7) | GI50 (OVCAR-4) | GI50 (SK-OV-3) | GI50 (CAKI-1) | GI50 (IGROV-1) | GI50 (SW-620) | GI50 (RXF 393) | GI50 (T47D) | GI50 (Hs-578T) | GI50 (NCI-H460) |
| --- | --- | --- | --- | --- | --- | --- | --- | --- | --- | --- | --- | --- | --- | --- | --- | --- | --- | --- |
| C=C(Cl)C(Cl)(CBr)CCC(Br)C(C)(C)Cl (configuration not stated) | 1.73 µM (inactive) and 11.5 µM (inactive) and 2.28 µM (inactive) | 2.76 µM (inactive) and 1.38 µM (inactive) | 2.63 µM (inactive) and 1.42 µM (inactive) and 1.35 µM (inactive) | 3.72 µM (inactive) and 1.07 µM (active) and 3.47 µM (inactive) | 1.79 µM (inactive) and 7.05 µM (inactive) and 3.31 µM (inactive) | 2.05 µM (inactive) and 1.04 µM (active) and 1.79 µM (inactive) | 4.36 µM (inactive) and 2.48 µM (inactive) and 3.09 µM (inactive) | 2.41 µM (inactive) and 863 nM (active) and 3.49 µM (inactive) | 1.26 µM (inactive) and 2.54 µM (inactive) and 220 nM (active) | 2.92 µM (inactive) and 1.6 µM (inactive) and 10.7 µM (inactive) | 2.36 µM (inactive) and 27.2 µM (inactive) | 217 nM (active) and 1.02 µM (active) and 828 nM (active) | 11.9 µM (inactive) and 21.5 µM (inactive) and 8.41 µM (inactive) | 1.91 µM (inactive) and 12.2 µM (inactive) and 1.52 µM (inactive) | 991 nM (active) and 190 nM (active) and 1.11 µM (active) | 3.37 µM (inactive) and 416 nM (active) and 973 nM (active) | 914 nM (active) and 1.11 µM (active) and 665 nM (active) | 2.34 µM (inactive) and 1.57 µM (inactive) and 1.45 µM (inactive) |
| COC(=O)C1=C(OC(=O)/C(=C/c2ccccc2)c2ccc(Cl)cc2)C(C(=O)OC)[C@@]2(O)[C@@H](C(=O)OC)[C@H](C)C[C@@H]1[C@@H]2C(=O)OC (some centres not stated) | > 100 µM (inactive) | > 100 µM (inactive) | 29.1 µM (inactive) | > 100 µM (inactive) | > 100 µM (inactive) | > 100 µM (inactive) | > 100 µM (inactive) | > 100 µM (inactive) | > 100 µM (inactive) | > 100 µM (inactive) | > 100 µM (inactive) | > 100 µM (inactive) | > 100 µM (inactive) | > 100 µM (inactive) | > 100 µM (inactive) | > 100 µM (inactive) | > 100 µM (inactive) | > 100 µM (inactive) |
| O=C(/C=C/c1cccs1)c1cccc(C(=O)/C=C/c2cccs2)n1 | 53.2 µM (inactive) | > 81.3 µM (inactive) | > 100 µM (inactive) | > 31.2 µM (inactive) | > 100 µM (inactive) | 42.8 µM (inactive) | > 84.3 µM (inactive) | 19.3 µM (inactive) | 1.25 µM (inactive) | > 100 µM (inactive) | > 100 µM (inactive) | 61.4 µM (inactive) | 27.7 µM (inactive) | 4.05 µM (inactive) | > 48.9 µM (inactive) | 19.4 µM (inactive) | 23.8 µM (inactive) | > 100 µM (inactive) |
| Cc1cc(C(O)CNC(C)CCn2cnc3c2c(=O)n(C)c(=O)n3C)ccc1O (configuration not stated) | > 100 µM (inactive) | > 100 µM (inactive) | > 100 µM (inactive) | > 100 µM (inactive) | > 100 µM (inactive) | > 100 µM (inactive) | > 100 µM (inactive) | > 100 µM (inactive) | > 100 µM (inactive) | > 100 µM (inactive) | > 100 µM (inactive) | > 100 µM (inactive) | > 100 µM (inactive) | > 100 µM (inactive) | > 100 µM (inactive) | > 100 µM (inactive) | > 100 µM (inactive) | > 100 µM (inactive) |
| CN(C(=O)Nc1ccc(Cl)c(Cl)c1)C1CCCC[C@@H]1N1CCCC1 (some centres not stated) | 21.7 µM (inactive) | 58.6 µM (inactive) | 34.4 µM (inactive) | 22.9 µM (inactive) | 47.5 µM (inactive) | 22.4 µM (inactive) | 61.2 µM (inactive) | 66.7 µM (inactive) | 33.6 µM (inactive) | 41.9 µM (inactive) | > 100 µM (inactive) | 70.6 µM (inactive) | 41.3 µM (inactive) | 63.7 µM (inactive) | 37.7 µM (inactive) | 39.6 µM (inactive) | 33.7 µM (inactive) | 36.6 µM (inactive) |
| Cc1n[nH]c(C(F)(F)F)c1/N=N/N1CCOCC1 | 14.7 µM (inactive) | 4.59 µM (inactive) | 2.42 µM (inactive) | 11 µM (inactive) | 5.74 µM (inactive) | 12.4 µM (inactive) | 8.89 µM (inactive) | 15.2 µM (inactive) | 3.78 µM (inactive) | 5.86 µM (inactive) | 16.6 µM (inactive) | 1.9 µM (inactive) | 10.7 µM (inactive) | 2.32 µM (inactive) | 12.5 µM (inactive) | 3.27 µM (inactive) | 13 µM (inactive) | 4.27 µM (inactive) |
| O=C1C=C2C(=NC34CCCCC3C(c3ccccc3)C3=C(c5ccccc5CC3)N24)c2ccccc21 (configuration not stated) | > 10 µM (inactive) | > 10 µM (inactive) | > 10 µM (inactive) | > 10 µM (inactive) | > 10 µM (inactive) | > 10 µM (inactive) | > 10 µM (inactive) | > 10 µM (inactive) | > 10 µM (inactive) | > 10 µM (inactive) | > 10 µM (inactive) | > 10 µM (inactive) | > 10 µM (inactive) | > 10 µM (inactive) | > 10 µM (inactive) | > 10 µM (inactive) | > 10 µM (inactive) | > 10 µM (inactive) |
| Nc1ncnc2c1ncn2[C@H]1C=C[C@@H](NO)C1 | > 100 µM (inactive) | > 100 µM (inactive) | > 100 µM (inactive) | > 100 µM (inactive) | > 100 µM (inactive) | > 100 µM (inactive) | > 100 µM (inactive) | > 100 µM (inactive) | > 100 µM (inactive) | > 100 µM (inactive) | > 100 µM (inactive) | > 100 µM (inactive) | > 100 µM (inactive) | > 100 µM (inactive) | > 100 µM (inactive) | > 100 µM (inactive) | > 100 µM (inactive) | > 100 µM (inactive) |
| COC(=O)C1=C(C(=O)OC)N(c2ccncc2)C(c2ccco2)=CC1c1ccccc1[N+](=O)[O-] (configuration not stated) | 6.32 µM (inactive) | 5.24 µM (inactive) | 14.1 µM (inactive) | 9.91 µM (inactive) | 6.59 µM (inactive) | 6.7 µM (inactive) | 10.3 µM (inactive) | 7.18 µM (inactive) | 1.87 µM (inactive) | 5.97 µM (inactive) | 16.8 µM (inactive) | 14.2 µM (inactive) | 1.95 µM (inactive) | 6.9 µM (inactive) | 4.65 µM (inactive) | 3.78 µM (inactive) | 5.94 µM (inactive) | 6.11 µM (inactive) |
| CC(=O)NNc1nc(C)c(C(/C=C/c2ccc([N+](=O)[O-])cc2)=N/N)s1 | > 100 µM (inactive) | 96.4 µM (inactive) | > 100 µM (inactive) | > 100 µM (inactive) | 94.4 µM (inactive) | > 100 µM (inactive) | > 100 µM (inactive) | > 100 µM (inactive) | > 100 µM (inactive) | > 100 µM (inactive) | 41.3 µM (inactive) | > 100 µM (inactive) | 54 µM (inactive) | > 100 µM (inactive) | 55.3 µM (inactive) | > 100 µM (inactive) | > 100 µM (inactive) | > 100 µM (inactive) |
| N#Cc1nc(-c2cc([N+](=O)[O-])cc([N+](=O)[O-])c2)oc1N | > 10 µM (inactive) | > 10 µM (inactive) | > 10 µM (inactive) | > 10 µM (inactive) | > 10 µM (inactive) | > 10 µM (inactive) | > 10 µM (inactive) | > 10 µM (inactive) | > 10 µM (inactive) | > 10 µM (inactive) | > 10 µM (inactive) | > 10 µM (inactive) | > 10 µM (inactive) | > 10 µM (inactive) | > 10 µM (inactive) | > 10 µM (inactive) | > 10 µM (inactive) | > 10 µM (inactive) |
| CC1(C)CCC[C@@]2(C)C1CC[C@@]1(CO)O[C@H](C3=CC(=O)OC3O)C[C@H]12 (some centres not stated) | 11.4 µM (inactive) | 13.3 µM (inactive) | 19.1 µM (inactive) | 3.89 µM (inactive) | 22.9 µM (inactive) | 8.26 µM (inactive) | 30.5 µM (inactive) | 16.2 µM (inactive) | 6.82 µM (inactive) | 14.5 µM (inactive) | 29.4 µM (inactive) | 15 µM (inactive) | 18.1 µM (inactive) | 7.74 µM (inactive) | 11 µM (inactive) | 12.2 µM (inactive) | 14.7 µM (inactive) | 17.7 µM (inactive) |
| C[C@]12OC(=O)[C@]3(O)CC[C@H]4[C@@H](C[C@@H](O)[C@@]5(Cl)CC=CC(=O)[C@]45C)[C@]45OCC6C(=O)O[C@@H]1C[C@@]6(C)[C@H](C4=O)[C@@]32O5 (some centres not stated) | 1.49 µM (inactive) | 3.82 µM (inactive) | 1.42 µM (inactive) | 0.879 µM (active) | 1.24 µM (inactive) | 0.586 µM (active) | 3.37 µM (inactive) | 5.73 µM (inactive) | 0.774 µM (active) | 3.78 µM (inactive) | 3.5 µM (inactive) | 0.787 µM (active) | 1 µM (active) | 0.494 µM (active) | 0.283 µM (active) | 1.82 µM (inactive) | 6.44 µM (inactive) | 1.89 µM (inactive) |
| NCCCNCCCCN1CC1 | 7.76 µM (inactive) | 2.12 µM (inactive) | 0.745 µM (active) | 3.99 µM (inactive) | 4.61 µM (inactive) | 5.4 µM (inactive) | 9.57 µM (inactive) | 6.55 µM (inactive) | 28.9 µM (inactive) | 0.259 µM (active) | 2.25 µM (inactive) | 0.0486 µM (active) | 3.84 µM (inactive) | 2.31 µM (inactive) | 0.705 µM (active) | 0.265 µM (active) | 1.08 µM (active) | 16.7 µM (inactive) |
